# Molecular target: T1, CFTR (primary human bronchial epithelial cells from a ΔF508 homozygous CF donor, CF-HBE cells) (Homo sapiens, UniProt P13569, DEL508-508)
# T1 construct: Primary human bronchial epithelial cells from a ΔF508 homozygous CF donor; host or cells: primary human bronchial epithelial cells (CF-HBE) from a ΔF508 homozygous CF donor
# Assay: TECC24 recording of CFTR-mediated transepithelial chloride transport (TECC24 AUC fold over DMSO @ 3 μM)
# Type: cell-based
# Conditions: 3 uM test agent; CF-HBE cells (ΔF508 homozygous) incubated 48 h; ratio of test agent AUC of forskolin-stimulated IEQ to vehicle (DMSO) AUC
# Procedure: Example 510: TECC24 AUC Fold Over DMSO @ 3 μM
# The effects of a test agent on CFTR-mediated transepithelial chloride transport was measured using TECC24 recording analysis. Test agents were solubilized in DMSO. Solubilized test agents were mixed with incubation medium containing DMEM/F12, Ultroser G (2%; Crescent Chemical, catalog #67042), Hyclone Fetal Clone H (2%; GE Healthcare, catalog #SH30066.02), bovine brain extract (0.25%; Lonza, catalog #CC-4098), insulin (2.5 μg/mL), IL-13 (10 ng/mL), hydrocortisone (20 nM), transferrin (2.5 μg/mL), triiodothyronine (500 nM), ethanolamine (250 nM), epinephrine (1.5 μM), phosphoethanolamine (250 nM), and retinoic acid (10 nM). Primary human bronchial epithelial cells from a ΔF508 homozygous CF donor (CF-HBE cells; from University of North Carolina Cystic Fibrosis Tissue Procurement Center), grown on Transwell HTS 24-well cell culture inserts (Costar, catalog #3378), were exposed to test agents or controls dissolved in incubation medium. The CF-HBE cells were cultured at 36.5° C. for 48 h before TECC24 recordings were performed in the presence or absence of test agent, a positive control or vehicle (DMSO).
# Following incubation, the transwell cell culture inserts containing the test agent or control-treated CF-HBE cells were loaded onto a TECC24 apparatus (TECC v7 or MTECC v2; EP Design) to record the transepithelial voltage (VT) and resistance (TEER) using 4 AgCl electrodes per well configured in current-clamp mode. The apical and basolateral bath solutions both contained (in mM) 140 NaCl, 5 KCl, 2 CaCl2), 1 MgCl2, 10 Hepes, and 10 glucose (adjusted to pH 7.4 with NaOH) […]. To inhibit basal Na+ absorption, the ENaC inhibitor benzamil (10 μM) was added to the bath. Then, the adenylate cyclase activator, forskolin (10 μM), was added to the bath to activate CFTR. The forskolin-stimulated Cl− transport was halted by addition of bumetanide (20 μM), an inhibitor of the basolateral chloride co-transporter NKCC1, to the bath to confirm that the detected signal was chloride dependent. VT and TEER recordings were digitally acquired at routine intervals using TECC or MTECC software (EP Design). VT and TEER were transformed into equivalent transepithelial Cl− current (IEQ), and the Area Under the Curve (AUC) of the IEQ time course between forskolin and bumetanide addition is generated using Excel (Microsoft). Efficacy is expressed as the ratio of the test agent AUC divided by vehicle AUC. EC50s based on AUC are generated using the non-linear regression log(agonist) vs. response function in Prism software (GraphPad) with Hill Slope fixed=1.
# If a test agent increased the AUC of the forskolin-stimulated IEQ relative to vehicle in CF-HBE cells, and this increase was inhibited by bumetanide, then the test agent was considered a CFTR corrector.
# T1 sequence (P13569 with tags, fused parts or gaps DEL508-508): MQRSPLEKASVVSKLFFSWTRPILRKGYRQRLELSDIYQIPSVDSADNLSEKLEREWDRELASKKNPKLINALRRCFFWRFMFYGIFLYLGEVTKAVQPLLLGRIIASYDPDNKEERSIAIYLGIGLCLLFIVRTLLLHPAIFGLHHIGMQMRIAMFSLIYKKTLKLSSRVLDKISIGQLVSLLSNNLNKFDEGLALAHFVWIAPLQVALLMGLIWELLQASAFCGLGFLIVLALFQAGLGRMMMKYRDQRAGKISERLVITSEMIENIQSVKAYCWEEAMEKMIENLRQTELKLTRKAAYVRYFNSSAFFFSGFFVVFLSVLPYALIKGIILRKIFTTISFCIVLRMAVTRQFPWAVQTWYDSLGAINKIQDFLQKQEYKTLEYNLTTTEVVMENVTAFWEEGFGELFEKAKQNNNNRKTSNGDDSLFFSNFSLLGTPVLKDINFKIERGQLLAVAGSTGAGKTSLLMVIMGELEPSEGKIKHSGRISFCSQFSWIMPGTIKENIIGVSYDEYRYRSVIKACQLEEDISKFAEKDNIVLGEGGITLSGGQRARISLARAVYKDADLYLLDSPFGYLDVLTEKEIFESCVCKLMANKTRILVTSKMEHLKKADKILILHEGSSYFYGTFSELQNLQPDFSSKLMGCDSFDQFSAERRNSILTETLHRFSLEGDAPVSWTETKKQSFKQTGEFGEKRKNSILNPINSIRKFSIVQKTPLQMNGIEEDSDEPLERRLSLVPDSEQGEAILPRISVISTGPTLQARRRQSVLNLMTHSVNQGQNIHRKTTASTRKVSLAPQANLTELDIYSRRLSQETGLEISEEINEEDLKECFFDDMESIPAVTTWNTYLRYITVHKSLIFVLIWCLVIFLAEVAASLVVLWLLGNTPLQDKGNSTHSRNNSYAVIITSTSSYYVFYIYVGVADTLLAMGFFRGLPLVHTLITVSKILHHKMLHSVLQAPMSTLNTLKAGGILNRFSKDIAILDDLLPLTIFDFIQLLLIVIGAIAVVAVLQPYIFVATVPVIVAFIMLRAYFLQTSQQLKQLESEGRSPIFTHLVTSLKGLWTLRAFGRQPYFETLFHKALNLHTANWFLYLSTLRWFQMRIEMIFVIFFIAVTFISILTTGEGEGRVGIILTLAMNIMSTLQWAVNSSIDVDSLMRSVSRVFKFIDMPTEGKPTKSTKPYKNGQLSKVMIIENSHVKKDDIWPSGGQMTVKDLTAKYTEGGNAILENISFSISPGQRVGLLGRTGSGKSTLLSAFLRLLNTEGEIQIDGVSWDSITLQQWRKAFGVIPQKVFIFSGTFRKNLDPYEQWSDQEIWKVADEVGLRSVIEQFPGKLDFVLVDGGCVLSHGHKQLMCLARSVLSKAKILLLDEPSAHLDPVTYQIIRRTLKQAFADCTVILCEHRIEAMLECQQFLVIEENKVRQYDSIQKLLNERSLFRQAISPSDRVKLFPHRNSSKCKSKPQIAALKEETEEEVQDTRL
row,SMILES,TECC AUC vs. DMSO @ 3 uM
1,"Cc1cccc(C)c1-c1nc(NS(=O)(=O)c2cccnc2N)sc1-c1cc(F)cc(OCCC(C)(C)C)c1 [Example 35, 2-Amino-N-(5-(3-(3,3-dimethylbutoxy)-5-fluorophenyl)-4-(2,6-dimethylphenyl)thiazol-2-yl)pyridine-3-sulfonamide]",A (“A” refers to AUC > 5)
2,"CC(C)c1ccccc1-c1nc(NS(=O)(=O)c2cccc(N[C@H](C(=O)O)C(C)(C)C)n2)sc1-c1cccc(OCCC(C)(C)C)c1 [Example 36, (S)-2-((6-(N-(5-(3-(3,3-Dimethylbutoxy)phenyl)-4-(2-isopropylphenyl)thiazol-2-yl)sulfamoyl)pyridin-2-yl)amino)-3,3-dimethylbutanoic Acid]",A (“A” refers to AUC > 5)
3,"Cc1cccc(C)c1-c1nc(NS(=O)(=O)c2ccnc(N)c2)sc1N1CCOC(CCCC(C)(C)C)C1 (stereo not drawn) [Example 37, 2-Amino-N-(5-(2-(4,4-dimethylpentyl)morpholino)-4-(2,6-dimethylphenyl)thiazol-2-yl)pyridine-4-sulfonamide]",A (“A” refers to AUC > 5)
4,"Cc1cccc(C)c1-c1nc(NS(=O)(=O)c2cccc(N)c2F)sc1N1CCOC2(CCC(C)(C)C2)C1 (stereo not drawn) [Example 38, 3-Amino-N-(5-(2,2-dimethyl-6-oxa-9-azaspiro[4.5]decan-9-yl)-4-(2,6-dimethylphenyl)thiazol-2-yl)-2-fluorobenzenesulfonamide]",A (“A” refers to AUC > 5)
5,"Cc1cccc(C)c1-c1nc(NS(=O)(=O)c2ccsc2)sc1-c1cccc(OCC(C)(C)C)c1 [Example 41, N-(4-(2,6-Dimethylphenyl)-5-(3-(neopentyloxy)phenyl)thiazol-2-yl)thiophene-3-sulfonamide]",A (“A” refers to AUC > 5)
6,"Cc1cccc(C)c1-c1nc(NS(=O)(=O)c2ccc(F)c(N)c2)sc1-c1cc(F)cc(OCCC(C)(C)C)c1 [Example 42, 3-Amino-N-(5-(3-(3,3-dimethylbutoxy)-5-fluorophenyl)-4-(2,6-dimethylphenyl)thiazol-2-yl)-4-fluorobenzenesulfonamide]",B (“B” refers to AUC 2-5)
7,"Nc1cccc(S(=O)(=O)Nc2nc(-c3ccccc3C(F)(F)F)c(-c3cccc([C@@H]4CC[C@@H](OC(F)(F)F)C4)c3)s2)c1F [Example 47B2, 3-Amino-2-fluoro-N-(5-(3-((1R,3R)-3-(trifluoromethoxy)cyclopentyl)phenyl)-4-(2-(trifluoromethyl)phenyl)thiazol-2-yl)benzenesulfonamide]",C (“C” refers to AUC < 2)
8,"Cc1cccc(C)c1-c1nc(NS(=O)(=O)c2cccc(N(C)C)n2)sc1-c1cc(F)cc(OCCC(C)(C)C)c1 [Example 240, 6-(dimethylamino)-N-[5-[3-(3,3-dimethylbutoxy)-5-fluorophenyl]-4-(2,6-dimethylphenyl)-1,3-thiazol-2-yl]pyridine-2-sulfonamide]",A (“A” refers to AUC > 5)
9,"Cc1cccc(C)c1-c1nc(NS(=O)(=O)c2cccc(S(C)(=O)=O)c2)sc1-c1cc(F)cc(OCCC(C)(C)C)c1 [Example 242, N-[5-[3-(3,3-dimethylbutoxy)-5-fluorophenyl]-4-(2,6-dimethylphenyl)-1,3-thiazol-2-yl]-3-methylsulfonylbenzenesulfonamide]",A (“A” refers to AUC > 5)
10,"Cc1cccc(C)c1-c1nc(NS(=O)(=O)c2cccc([S+](C)[O-])c2)sc1-c1cc(F)cc(OCCC(C)(C)C)c1 (stereo not drawn) [Example 259, N-[5-[3-(3,3-dimethylbutoxy)-5-fluorophenyl]-4-(2,6-dimethylphenyl)-1,3-thiazol-2-yl]-3-methylsulfinylbenzenesulfonamide]",B (“B” refers to AUC 2-5)

# Results, then the compound that gave them:
row,TECC AUC vs. DMSO @ 3 uM,SMILES
1,B (“B” refers to AUC 2-5),"CC(C)c1ccccc1-c1nc(NS(=O)(=O)c2cccc(N)c2F)sc1N1CCOC2(CCC(C)(C)C2)C1 (stereo not drawn) [Example 39, 3-Amino-N-(5-(2,2-dimethyl-6-oxa-9-azaspiro[4.5]decan-9-yl)-4-(2-isopropylphenyl)thiazol-2-yl)-2-fluorobenzenesulfonamide]"
2,A (“A” refers to AUC > 5),"CC(C)(C)CCCOc1ccn(-c2sc(NS(=O)(=O)c3ccccc3)nc2-c2ccccc2C(F)(F)F)n1 [Example 40, N-(5-(3-((4,4-Dimethylpentyl)oxy)-1H-pyrazol-1-yl)-4-(2-(trifluoromethyl)phenyl)thiazol-2-yl)benzenesulfonamide]"
3,C (“C” refers to AUC < 2),"Cc1nn(C)cc1S(=O)(=O)Nc1nc(-c2ccccc2C(C)C)c(-c2cccc([C@H]3CC[C@@H](OC(F)(F)F)C3)c2)s1 [Example 46A1, N-(4-(2-Isopropylphenyl)-5-(3-((1S,3R)-3-(trifluoromethoxy)cyclopentyl)phenyl)thiazol-2-yl)-1,3-dimethyl-1H-pyrazole-4-sulfonamide]"
4,B (“B” refers to AUC 2-5),"Cc1nn(C)cc1S(=O)(=O)Nc1nc(-c2ccccc2C(C)C)c(-c2cccc([C@H]3CC[C@H](OC(F)(F)F)C3)c2)s1 [Example 46A2, N-(4-(2-Isopropylphenyl)-5-(3-((1S,3S)-3-(trifluoromethoxy)cyclopentyl)phenyl)thiazol-2-yl)-1,3-dimethyl-1H-pyrazole-4-sulfonamide]"
5,A (“A” refers to AUC > 5),"Cc1nn(C)cc1S(=O)(=O)Nc1nc(-c2ccccc2C(C)C)c(-c2cccc([C@@H]3CC[C@H](OC(F)(F)F)C3)c2)s1 [Example 46B1, N-(4-(2-Isopropylphenyl)-5-(3-((1R,3S)-3-(trifluoromethoxy)cyclopentyl)phenyl)thiazol-2-yl)-1,3-dimethyl-1H-pyrazole-4-sulfonamide]"
6,C (“C” refers to AUC < 2),"Cc1nn(C)cc1S(=O)(=O)Nc1nc(-c2ccccc2C(C)C)c(-c2cccc([C@@H]3CC[C@@H](OC(F)(F)F)C3)c2)s1 [Example 46B2, N-(4-(2-Isopropylphenyl)-5-(3-((1R,3R)-3-(trifluoromethoxy)cyclopentyl)phenyl)thiazol-2-yl)-1,3-dimethyl-1H-pyrazole-4-sulfonamide]"
7,A (“A” refers to AUC > 5),"Nc1cccc(S(=O)(=O)Nc2nc(-c3ccccc3C(F)(F)F)c(-c3cccc([C@@H]4CC[C@H](OC(F)(F)F)C4)c3)s2)c1F [Example 47B1, 3-Amino-2-fluoro-N-(5-(3-((1R,3S)-3-(trifluoromethoxy)cyclopentyl)phenyl)-4-(2-(trifluoromethyl)phenyl)thiazol-2-yl)benzenesulfonamide]"
8,A (“A” refers to AUC > 5),"CC(C)c1ccccc1-c1nc(NS(=O)(=O)c2cccc(N)c2F)sc1-c1cccc([C@H]2CC[C@@H](OC(F)(F)F)C2)c1 [Example 48A1, 3-Amino-2-fluoro-N-(4-(2-isopropylphenyl)-5-(3-((1S,3R)-3-(trifluoromethoxy)cyclopentyl)phenyl)thiazol-2-yl)benzenesulfonamide]"
9,A (“A” refers to AUC > 5),"CC(C)c1ccccc1-c1nc(NS(=O)(=O)c2cccc(N)c2F)sc1-c1cccc([C@H]2CC[C@H](OC(F)(F)F)C2)c1 [Example 48A2, 3-Amino-2-fluoro-N-(4-(2-isopropylphenyl)-5-(3-((1S,3S)-3-(trifluoromethoxy)cyclopentyl)phenyl)thiazol-2-yl)benzenesulfonamide]"
10,B (“B” refers to AUC 2-5),"CC(C)c1ccccc1-c1nc(NS(=O)(=O)c2cccc(N)c2F)sc1-c1cccc([C@@H]2CC[C@H](OC(F)(F)F)C2)c1 [Example 48B1, 3-Amino-2-fluoro-N-(4-(2-isopropylphenyl)-5-(3-((1R,3S)-3-(trifluoromethoxy)cyclopentyl)phenyl)thiazol-2-yl)benzenesulfonamide]"
11,B (“B” refers to AUC 2-5),"CC(C)c1ccccc1-c1nc(NS(=O)(=O)c2cccc(N)c2F)sc1-c1cccc([C@@H]2CC[C@@H](OC(F)(F)F)C2)c1 [Example 48B2, 3-Amino-2-fluoro-N-(4-(2-isopropylphenyl)-5-(3-((1R,3R)-3-(trifluoromethoxy)cyclopentyl)phenyl)thiazol-2-yl)benzenesulfonamide]"

# — patent US20240002374A1, “5-MEMBERED HETEROARYLAMINOSULFONAMIDES FOR TREATING CONDITIONS MEDIATED BY DEFICIENT CFTR ACTIVITY” (Genzyme Corporation, priority 2019, published 2024)
